The subject of one assay is olfactory TAARs. The assay can be described thus: TAAR reporter gene assay, panel of mouse and rat TAARs in HEK293 cells. The class given is cell-based. The conditions noted are these: mouse and rat TAARs. The source says:
Here, we set out to identify agonists for additional mouse and rat TAARs. We examined odor response profiles using a previously established reporter gene assay based on cAMP-dependent odor transduction in olfactory sensory neurons (40, 42). Briefly, TAAR plasmids were transfected into HEK293 cells along with a cAMP-dependent reporter gene encoding secreted alkaline phosphatase (CRE-SEAP). TAARs were expressed both in unmodified form and as fusion proteins with an N-terminal sequence of bovine rhodopsin (‘Rho tag’) that promotes cell surface expression of some chemosensory receptors (35). Transfected cells were incubated with test chemicals, and phosphatase activity was quantified with a fluorescent substrate as a reporter for TAAR activation. In initial experiments, we tested 38 different odorant mixtures containing 244 structurally diverse test chemicals (2-5 μM) for the ability to activate each mTAAR. Subsequently, we tested 73 amines that included known mTAAR agonists and related chemicals for the ability to activate each rTAAR.
TAAR functional assays. Full Taar coding regions were cloned into pcDNA3.1-(Invitrogen) with or without a 5′ DNA extension of 69 bp encoding the first 20 amino acids of bovine rhodopsin followed by a cloning linker ([…]). Point mutations were introduced in mTAAR7e and mTAAR7f by overlap extension PCR. Functional assays were performed as described (40, 42). Fluorescence was measured on an EnVision plate reader (Perkin Elmer) and SEAP activity graphed as relative fluorescence of a phosphatase substrate.
On the technique in general: A reporter such as luciferase makes a cellular process visible.

In another assay the target is T1, mouse TAAR3 (Mus musculus, UniProt Q5QD16).
T1 construct: Full Taar coding regions were cloned into pcDNA3.1-(Invitrogen); expressed in transfected cells; host or cells: HEK293
T1 sequence (Q5QD16 1-343): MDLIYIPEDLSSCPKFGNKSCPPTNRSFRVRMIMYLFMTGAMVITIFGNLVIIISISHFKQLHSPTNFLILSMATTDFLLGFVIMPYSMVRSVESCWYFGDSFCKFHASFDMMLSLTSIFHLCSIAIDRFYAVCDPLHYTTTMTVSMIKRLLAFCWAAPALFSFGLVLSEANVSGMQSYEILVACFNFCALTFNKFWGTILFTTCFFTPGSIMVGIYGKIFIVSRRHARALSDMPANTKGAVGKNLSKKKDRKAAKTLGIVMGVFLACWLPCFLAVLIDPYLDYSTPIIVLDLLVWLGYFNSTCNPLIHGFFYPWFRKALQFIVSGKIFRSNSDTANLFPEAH
The assay can be described thus: TAAR3 CRE-SEAP reporter gene assay in transfected HEK293 cells. The class given is cell-based. The method, then: Reporter gene assays were performed on HEK293 cells transfected with mouse TAAR3 and CRE-SEAP.
TAAR functional assays. Reporter gene assays were performed as described (Liberles S D & Buck LB (2006) A second class of chemosensory receptors in the olfactory epithelium. Nature 442(7103):645-650) with the following minor modifications. Test urines were diluted in serum-free media containing penicillin G (100 Units/ml, Invitrogen) and streptomycin sulfate ([…], Invitrogen). SEAP activity is measured as fluorescence resulting from dephosphorylation of a substrate, 4-methylumbelliferyl phosphate. Fluorescence values were obtained using an EnVision plate reader (Perkin Elmer) and are reported directly without normalization. All TAARs, except mouse TAAR3, were expressed as fusion proteins with an N-terminal sequence of bovine rhodopsin (Krautwurst D, Yau K W, & Reed R R (1998) Identification of ligands for olfactory receptors by functional expression of a receptor library. Cell 95(7):917-926).

Assay [1] concerns corticosterone levels in rat plasma. The assay can be described thus: Plasma corticosterone assay after odor exposure. The format is in vivo. The settings on record: 30 min exposure, 10% amine or 2% TMT, 1 ml, ±SEM. The method, then: Avoidance to 2-phenylethylamine in rats was associated with acute changes in circulating levels of the stress hormone corticosterone.
Plasma corticosterone assay. […] Corticosterone levels were measured in duplicate using a competitive radioactive binding assay as described previously (Pryce C R, Bettschen D, Bahr N I, & Feldon J (2001) Comparison of the effects of infant handling, isolation, and nonhandling on acoustic startle, prepulse inhibition, locomotion, and HPA activity in the adult rat. Behav Neurosci 115(1):71-83).

For a further assay, the target named is T2, mouse TAAR4 (Mus musculus, UniProt Q5QD15).
T2 construct: Full Taar coding regions were cloned into pcDNA3.1-(Invitrogen); expressed in transfected cells; host or cells: HEK293
T2 sequence (Q5QD15 1-347): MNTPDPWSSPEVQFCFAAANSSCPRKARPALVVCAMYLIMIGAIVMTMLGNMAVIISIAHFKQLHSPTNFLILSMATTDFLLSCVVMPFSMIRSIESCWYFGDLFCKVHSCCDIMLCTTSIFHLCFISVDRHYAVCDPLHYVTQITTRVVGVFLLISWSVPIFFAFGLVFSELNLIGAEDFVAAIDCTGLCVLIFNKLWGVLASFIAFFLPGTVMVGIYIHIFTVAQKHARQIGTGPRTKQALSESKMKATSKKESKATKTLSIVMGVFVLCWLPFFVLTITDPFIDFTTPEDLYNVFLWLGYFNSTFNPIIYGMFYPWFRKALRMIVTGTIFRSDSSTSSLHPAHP
The assay can be described thus: TAAR4 CRE-SEAP reporter gene assay in transfected HEK293 cells. The class given is cell-based. The conditions noted are these: concentration series of pure chemicals.

Data on ten compounds can be found in patent US20140221499A1, “NOVEL RODENT CONTROL AGENTS AND USES THEREOF” (priority 2011, published 2014).

Procedure for mouse TAAR4: HEK293 cells were co-transfected with TAAR expression plasmids and a cAMPdependent reporter gene encoding secreted alkaline phosphatase (CRE-SEAP). Transfected cells were incubated with urine extracts from different mammalian species, and phosphatase activity was quantified with a fluorescent substrate as a reporter for TAAR activation.
Test urines were diluted in serum-free media containing penicillin G (100 Units/ml, Invitrogen) and streptomycin sulfate (100 mg/ml, Invitrogen). SEAP activity is measured as fluorescence resulting from dephosphorylation of a substrate, 4-methylumbelliferyl phosphate. Fluorescence values were obtained using an EnVision plate reader (Perkin Elmer) and are reported directly without normalization.

For the compound `CCCCCCCCN(C)C` [N,N-dimethyloctylamine], the TAAR activation entry in the assay on olfactory TAARs is “activated TAARs”.

In the case of `CN1CCCCC1` [1-methylpiperidine, N-methylpiperidine], the TAAR activation result in the assay on olfactory TAARs is “activated TAARs”. Still for that read-out and setting: the same measure for `CCCCNC` [methylbutylamine]: “activated TAARs”. Regarding `CC(C)CCN` [isoamylamine], in the assay with olfactory TAARs, the TAAR activation result is given as “activated TAARs”. Moreover, the TAAR3 detection entry at mouse TAAR3 is given as “preferred ligand”. Consider `CC1=NC(C)SC1C` (centres unmarked) [TMT, 2,5-dihydro-2,4,5-trimethylthiazole], for which the “plasma levels of corticosterone” value in assay [1] was found to be 238 ± 21 ng/mL. Take `NC1CCCCC1` [cyclohexylamine]: the TAAR activation entry with olfactory TAARs is “activated TAARs”. With `OCCc1ccccc1` [2-phenylethanol], the TAAR4 activation result at mouse TAAR4 is “did not activate TAAR4 at any concentration tested”.

As for `COc1ccc2[nH]cc(CCN(C)C)c2c1` [ligand 7, 5-methoxy-N,N-dimethyltryptamine], the TAAR activation result in the assay on olfactory TAARs was “activated different TAAR7 paralogs”.

On to `NCCCc1ccccc1` [3-phenylpropylamine], for which the TAAR4 activation result at mouse TAAR4 is “activates TAAR4 at high concentrations”. As to `CCCCN(C)C` [N,N-dimethylbutylamine], in the assay on olfactory TAARs, the TAAR activation result was “activated TAARs”.
